Where two headings read alike, the source gives them in different places.
Key:
Format in all cases: in vivo
[1] = tested on: Erysiphe graminis tritici (powdery mildew); assay: Test 1 greenhouse foliar spray screen, powdery mildew on wheat; details: disease control rating, foliar spray on wheat, 400 ppm (+++ at 100 ppm)
[2] = tested on: Pyricularia oryzae (rice blast); assay: whole plant or invertebrate; details: disease control rating, foliar spray on rice, 400 ppm (+++ at 100 ppm)
[3] = tested on: Puccinia recondita tritici (leaf rust); assay: Test 1 greenhouse foliar spray screen, leaf rust on wheat; details: disease control rating, foliar spray on wheat, 400 ppm (+++ at 100 ppm)
[4] = tested on: Botrytis cinerea (gray mold); assay: Test 1 greenhouse foliar spray screen, gray mold on grape berries; details: disease control rating, spray on grape berries, 400 ppm (+++ at 100 ppm)
[5] = tested on: Pseudoperonospora cubensis (downy mildew); assay: Test 1 greenhouse foliar spray screen, downy mildew on squash; details: disease control rating, foliar spray on squash, 400 ppm (+++ at 100 ppm)
[6] = tested on: Cercospora beticola (leaf spot); assay: Test 1 greenhouse foliar spray screen, leaf spot on sugar beet; details: disease control rating, foliar spray on sugar beet, 400 ppm (+++ at 100 ppm)
[7] = tested on: Venturia inaequalis (apple scab); assay: Test 1 greenhouse foliar spray screen, apple scab on apple seedling; details: disease control rating, foliar spray on apple seedling, 400 ppm (+++ at 100 ppm)
[8] = tested on: Septoria tritici (leaf blotch); assay: Test 1 greenhouse foliar spray screen, leaf blotch on wheat; details: disease control rating, foliar spray on wheat, 400 ppm (+++ at 100 ppm)
[9] = tested on: southern armyworm (Spodopetra eridania Cramer); assay: Mite/insect screen, SAW; details: Spodoptera eridania, percent mortality, read-out: SAW RESULTS %
Summary of the method: (§1)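 Compounds dissolved in 50:50 acetone/alcohol containing sulfonate/nonionic emulsifier blends, then diluted with water to the indicated concentrations. Leaves sprayed on both surfaces to runoff at 10 psi and dried one hour. Percent mortality scored after standard exposure periods.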

[10] = tested on: Twospotted spider mites (Tetranychus urticae Koch); assay: Mite/insect screen, SM; details: Tetranychus urticae, percent mortality, read-out: SM RESULTS %
Summary of the method: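 Activity is expressed as percent mortality at the indicated spray concentrations. Plants are sprayed to runoff on upper and lower leaf surfaces with aqueous dilutions of an acetone/alcohol emulsifiable formulation, then dried for one hour.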

[11] = tested on: melon aphids (Aphis gossypii Glover); assay: Mite/insect screen, MA; details: Aphis gossypii, percent mortality, read-out: MA RESULTS %
Summary of the method: as §1

[12] = tested on: corn rootworm; assay: Mite/insect screen, CRW; details: percent mortality, read-out: CRW RESULTS %
Summary of the method: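 Compounds were dissolved in 50:50 acetone/alcohol containing sulfonate/nonionic emulsifier blends (23 g/L plus 13 g/L), then diluted with water to the test concentrations. Percent mortality was scored after standard exposure periods.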

[13] = foliar, rate 200 ppm, foliar spray on squash
[14] = foliar, rate 400 ppm, foliar spray on squash

| Compound | POWD MDEW [1] | RICE BLAST [2] | LEAF RUST [3] | GRAY MOLD [4] | DOWN MDEW [5] | LEAF SPOT [6] | APPL SCAB [7] | LEAF BLOT [8] | mortality at 200 ppm ([9]; SAW, SM & MA RATE 200 PPM) | mortality at 200 ppm ([10]; SAW, SM & MA RATE 200 PPM) | mortality at 200 ppm ([11]; SAW, SM & MA RATE 200 PPM) | mortality at 12 ppm ([12]; CRW RATE 12.00 PPM) | mortality at 200 ppm [9, 13] | mortality at 200 ppm [10, 13] | mortality at 200 ppm [11, 13] | mortality at 12 ppm ([12]; CRW rate 12.00 ppm) | mortality at 400 ppm ([9]; SAW, SM & MA RATE 400 PPM) | mortality at 400 ppm ([10]; SAW, SM & MA RATE 400 PPM) | mortality at 400 ppm ([11]; SAW, SM & MA RATE 400 PPM) | mortality at 24 ppm ([12]; CRW RATE 24.00 PPM) | further results |
| --- | --- | --- | --- | --- | --- | --- | --- | --- | --- | --- | --- | --- | --- | --- | --- | --- | --- | --- | --- | --- | --- |
| Fc1cccc2c(NCCc3c(Cl)cccc3Cl)ccnc12 [Example 118, N-[2-(2,6-dichlorophenyl)ethyl]-8-fluoro-4-quinolinamine] | - (0-19% control at 400 ppm) | + (20-89% control at 400 ppm) | - (0-19% control at 400 ppm) | - (0-19% control at 400 ppm) | - (0-19% control at 400 ppm) | - (0-19% control at 400 ppm) | - (0-19% control at 400 ppm) | - (0-19% control at 400 ppm) | 0% | 0% | 0% | 0% | – | – | – | – | – | – | – | – | – |
| Fc1cccc2c(NCCc3c[nH]c4ccccc34)ccnc12 [Example 176, 8-fluoro-N-[2-(1H-indol-3-yl)ethyl]-4-quinolinamine] | + (20-89% control at 400 ppm) | + (20-89% control at 400 ppm) | + (20-89% control at 400 ppm) | - (0-19% control at 400 ppm) | ++ (90-100% control at 400 ppm) | + (20-89% control at 400 ppm) | - (0-19% control at 400 ppm) | - (0-19% control at 400 ppm) | – | – | – | – | 0% | 0% | 0% | 0% | – | – | – | – | – |
| Fc1ccc2nccc(NCCc3ccccc3)c2c1 [Example 9, 6-fluoro-N-(2-phenylethyl)-4-quinolinamine] | + (20-89% control at 400 ppm) | + (20-89% control at 400 ppm) | + (20-89% control at 400 ppm) | - (0-19% control at 400 ppm) | +++ (90-100% control at 100 ppm) | - (0-19% control at 400 ppm) | - (0-19% control at 400 ppm) | - (0-19% control at 400 ppm) | 0% | 0% | 0% | 0% | – | – | – | – | – | – | – | – | – |
| CC(=O)N(CCC1=CCCCC1)c1ccnc2c(C)cc(C)cc12 [Example 179, N-[2-(1-cyclohexenyl)ethyl]-N-(6,8-dimethyl-4-quinolinyl)acetamide] | - (0-19% control at 400 ppm) | - (0-19% control at 400 ppm) | - (0-19% control at 400 ppm) | - (0-19% control at 400 ppm) | ++ (90-100% control at 400 ppm) | + (20-89% control at 400 ppm) | + (20-89% control at 400 ppm) | - (0-19% control at 400 ppm) | – | – | – | – | 0% | 0% | 0% | 0% | – | – | – | – | mortality at 400 ppm [9, 14]: 0%; mortality at 400 ppm [10, 14]: 0%; mortality at 400 ppm [11, 14]: 0%; mortality at 24 ppm ([12]; CRW rate 24.00 ppm): 0% |
| Fc1cccc2c(NCCCc3ccc(Cl)cc3)ccnc12 [Example 135, N-[3-(4-chlorophenyl)propyl]-8-fluoro-4-quinolinamine] | - (0-19% control at 400 ppm) | - (0-19% control at 400 ppm) | - (0-19% control at 400 ppm) | - (0-19% control at 400 ppm) | +++ (90-100% control at 100 ppm) | - (0-19% control at 400 ppm) | - (0-19% control at 400 ppm) | + (20-89% control at 400 ppm) | 0% | 0% | 0% | 0% | – | – | – | – | 0% | 0% | 0% | 0% | – |
| FC(F)(F)c1cccc(CCNc2ccnc3cc(Cl)ccc23)c1 [Example 107, 7-chloro-N-[2-[3-(trifluoromethyl)phenyl]ethyl]-4-quinolinamine] | ++ (90-100% control at 400 ppm) | + (20-89% control at 400 ppm) | + (20-89% control at 400 ppm) | - (0-19% control at 400 ppm) | +++ (90-100% control at 100 ppm) | - (0-19% control at 400 ppm) | - (0-19% control at 400 ppm) | - (0-19% control at 400 ppm) | 0% | 0% | 0% | 0% | – | – | – | – | 0% | 0% | 0% | 0% | – |
| Fc1cccc2c(NCCc3ccc(-c4ccccc4)cc3)ccnc12 [Example 113, N-[2-(1,1-biphenyl)-4-yl-ethyl]-8-fluoro-4-quinolinamine] | + (20-89% control at 400 ppm) | +++ (90-100% control at 100 ppm) | +++ (90-100% control at 100 ppm) | - (0-19% control at 400 ppm) | +++ (90-100% control at 100 ppm) | - (0-19% control at 400 ppm) | - (0-19% control at 400 ppm) | +++ (90-100% control at 100 ppm) | 100% | 40% | 0% | 0% | – | – | – | – | 70% | 0% | 0% | 100% | – |
| Fc1ccc2c(NCCc3ccccc3)ccnc2c1 [Example 8, 7-fluoro-N-(2-phenylethyl)-4-quinolinamine] | + (20-89% control at 400 ppm) | ++ (90-100% control at 400 ppm) | + (20-89% control at 400 ppm) | - (0-19% control at 400 ppm) | +++ (90-100% control at 100 ppm) | +++ (90-100% control at 100 ppm) | - (0-19% control at 400 ppm) | + (20-89% control at 400 ppm) | 100% | 0% | 0% | 0% | – | – | – | – | – | – | – | – | – |
| c1csc(CCNc2ccnc3ccccc23)c1 [Example 147, N-[2-(2-thienyl)ethyl]-4-quinolinamine] | - (0-19% control at 400 ppm) | + (20-89% control at 400 ppm) | + (20-89% control at 400 ppm) | - (0-19% control at 400 ppm) | +++ (90-100% control at 100 ppm) | - (0-19% control at 400 ppm) | - (0-19% control at 400 ppm) | - (0-19% control at 400 ppm) | 0% | 0% | 0% | 0% | – | – | – | – | – | – | – | – | – |
| Clc1cccc2c(NCCc3cccs3)ccnc12 [Example 172, 8-chloro-N-[2-(2-thienyl)ethyl]-4-quinolinamine] | + (20-89% control at 400 ppm) | + (20-89% control at 400 ppm) | + (20-89% control at 400 ppm) | - (0-19% control at 400 ppm) | + (20-89% control at 400 ppm) | - (0-19% control at 400 ppm) | - (0-19% control at 400 ppm) | - (0-19% control at 400 ppm) | – | – | – | – | 0% | 0% | 0% | 0% | – | – | – | – | – |

Source: patent EP0326331B1, “Substituted quinolines and cinnolines” (Dow AgroSciences LLC, priority 1988, dated 1989)
